This note sets out measurements from PMC11187126, “Structure and dynamics of the pyroglutamylated RF-amide peptide QRFP receptor GPR103” (Nature Communications, 2024).

Where two headings read alike, the source gives them in different places. No end group written: not given here.

In the experiment the target is T1, GPR103 W286^6.48A (Homo sapiens, UniProt Q96P65, W286A).
T1 construct: we used human full-length QRFPR-encoding plasmids; expressed in transfected cells; host or cells: HEK293 cells (HEK293A in the flow cytometry section), pCAGGS vector
T1 sequence (Q96P65 1-431 W286A): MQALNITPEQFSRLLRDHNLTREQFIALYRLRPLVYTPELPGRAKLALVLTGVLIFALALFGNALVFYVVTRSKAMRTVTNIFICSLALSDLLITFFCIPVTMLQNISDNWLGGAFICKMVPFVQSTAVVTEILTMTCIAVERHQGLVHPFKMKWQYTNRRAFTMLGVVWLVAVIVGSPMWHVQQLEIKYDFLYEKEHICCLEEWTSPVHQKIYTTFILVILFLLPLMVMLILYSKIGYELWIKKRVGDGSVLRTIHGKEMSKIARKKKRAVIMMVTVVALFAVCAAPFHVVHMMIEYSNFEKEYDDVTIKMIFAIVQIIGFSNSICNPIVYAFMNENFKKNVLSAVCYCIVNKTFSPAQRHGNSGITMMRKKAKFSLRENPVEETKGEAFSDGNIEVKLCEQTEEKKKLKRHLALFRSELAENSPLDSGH
The experiment in a line: TGFα shedding assay; Exp. level WT (1:20). In kind it is cell-based.

By EC50 is commonly meant the concentration that produces a half-maximal response. For TSGPLGNLAEELNGYSRKKGGFSFRF-NH2 [QRFP26], the Emax is, setting by setting: (Exp. #1) 72.87 % WT; (Exp. #2) 70.40 % WT; (Exp. #3) 78.23 % WT; (mean, read-out: Emax) 73.8%; (n = 3, read-out: Emax) 75.7 ± 1.9%. This substance gave an EC50 (n = 3) of 1120 nM.
